Laboratory results from patent US20060069132A1, “Azolecarboxamide herbicides” (priority 2004, published 2006).
Where two headings read alike, the source gives them in different places.

What was measured:
[1] = system: Surinam grass; assay: Test B pre-/postemergence herbicide test; type: in vivo, Urochloa decumbens
Summary of the method: (§1)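 Pre: seeds sown, then sprayed. Post: 1–4-leaf plants (2–18 cm) sprayed at the same time. Paddy: flooded, treated at 2-leaf stage. Formulation: non-phytotoxic solvent with surfactant. Greenhouse 13–15 days; visual 0–100 score relative to controls.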

[2] = system: barnyardgrass; assay: Test B pre-/postemergence herbicide test; type: in vivo, Echinochloa crus-galli
Summary of the method: (§2)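 Herbicidal effect was judged by eye on a 0–100 scale after plants stood 13 to 15 days in the greenhouse following pre- or postemergence treatment with surfactant-containing formulations.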

[3] = system: corn; assay: Test B pre-/postemergence herbicide test; type: in vivo, Zea mays
Summary of the method: as §1

[4] = system: cocklebur; assay: Test B pre-/postemergence herbicide test; type: in vivo, Xanthium strumarium
Summary of the method: as §2

[5] = system: wheat; assay: Test B postemergence herbicide test; type: in vivo, Triticum aestivum; conditions: Postemergence, scale 0 (no effect) to 100 (complete control); for Plant response rating, Wheat: 500 g ai/ha, visual rating after 13 to 15 days
Summary of the method: (§3)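 Plants grow to 1- to 4-leaf stage (2–18 cm) for postemergence spraying, or to 2-leaf stage for the paddy test. Formulated compound is applied. Greenhouse holding lasts 13–15 days. Response is scored visually relative to controls, 0 no effect to 100 complete control; a dash means no result.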

[6] = system: giant foxtail; assay: Test B pre-/postemergence herbicide test; type: in vivo, Setaria faberi
Summary of the method: as §1

[7] = system: lambsquarters; assay: Test B pre-/postemergence herbicide test; type: in vivo, Chenopodium album
Summary of the method: as §1

[8] = system: small flower umbrella sedge; assay: Test B flooded paddy test; type: in vivo, Cyperus difformis; conditions: 1000 g ai/ha, visual rating, scale 0 to 100 (0 no effect, 100 complete control), 13 to 15 days
Summary of the method: (§4)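 Treated at 2-leaf (paddy) or 1–4-leaf, 2–18 cm (postemergence); greenhouse 13–15 d; visual score vs control, 0 none to 100 complete control; dash = not tested.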

[9] = system: large crabgrass; assay: Test B pre-/postemergence herbicide test; type: in vivo, Digitaria sanguinalis
Summary of the method: as §1

[10] = system: pigweed; assay: Test B pre-/postemergence herbicide test; type: in vivo, Amaranthus retroflexus
Summary of the method: as §1

[11] = system: wild oat; assay: Test B postemergence herbicide test; type: in vivo, Avena fatua; conditions: Postemergence, scale 0 (no effect) to 100 (complete control); for Plant response rating, Oat, Wild: 500 g ai/ha, visual rating after 13 to 15 days
Summary of the method: as §3

[12] = system: morningglory; assay: Test B pre-/postemergence herbicide test; type: in vivo, Ipomoea coccinea; conditions: for pest or weed control at 500 g/ha: 500 g ai/ha
Summary of the method: as §2

[13] = system: rice; assay: Test B flooded paddy test; type: in vivo, Oryza sativa; conditions: 1000 g ai/ha, visual rating, scale 0 to 100 (0 no effect, 100 complete control), 13 to 15 days
Summary of the method: as §3

[14] = system: velvetleaf; assay: Test B pre-/postemergence herbicide test; type: in vivo, Abutilon theophrasti
Summary of the method: as §1

[15] = system: barnyardgrass; assay: Test B flooded paddy test; type: in vivo, Echinochloa crus-galli; conditions: 1000 g ai/ha, visual rating, scale 0 to 100 (0 no effect, 100 complete control), 13 to 15 days
Summary of the method: as §4

[16] = Postemergence, 500 g ai/ha, visual rating after 13 to 15 days, scale 0 (no effect) to 100 (complete control)
[17] = Preemergence, 500 g ai/ha, scale 0 to 100
[18] = preemergence, 125 g ai/ha, 0 to 100 scale, 0 is no effect, 100 is complete control
[19] = Postemergence, 125 g ai/ha, scale 0 (no effect) to 100 (complete control)

## CCNC(=O)c1ccc(F)c(NC(=O)c2cc(C(C)(C)C)nn2CC)c1 [Compound 2, 3-(1,1-dimethylethyl)-1-ethyl-N-[5-[(ethylamino)carbonyl]-2-fluorophenyl]-1H-pyrazole-5-carboxamide]
[1]; Urochloa decumbens, post-emergence, Postemergence, 125 g ai/ha, scale 0 (no effect) to 100 (complete control), read-out: Surinam Grass plant response rating
  pest or weed control at 125 g/ha: 20%
[1]; Urochloa decumbens, post-emergence, Postemergence, 500 g ai/ha, visual rating after 13 to 15 days, scale 0 (no effect) to 100 (complete control), read-out: Plant response rating, Surinam Grass
  pest or weed control at 500 g/ha: 50%
[1]; Urochloa decumbens, pre-emergence, Preemergence, 500 g ai/ha, scale 0 to 100, read-out: Surinam Grass plant response rating
  pest or weed control at 500 g/ha: 100%
[2]; Echinochloa crus-galli, post-emergence, Postemergence, 125 g ai/ha, scale 0 (no effect) to 100 (complete control), read-out: Barnyardgrass plant response rating
  pest or weed control at 125 g/ha: 30%
[2]; Echinochloa crus-galli, post-emergence, Postemergence, 500 g ai/ha, visual rating after 13 to 15 days, scale 0 (no effect) to 100 (complete control), read-out: Plant response rating, Barnyardgrass
  pest or weed control at 500 g/ha: 70%
[2]; Echinochloa crus-galli, pre-emergence, Preemergence, 500 g ai/ha, scale 0 to 100, read-out: Barnyardgrass plant response rating
  pest or weed control at 500 g/ha: 100%
[3]; Zea mays, post-emergence, Postemergence, 125 g ai/ha, scale 0 (no effect) to 100 (complete control), read-out: Corn plant response rating
  plant injury at 125 g/ha: 20%
[3]; Zea mays, post-emergence, Postemergence, 500 g ai/ha, visual rating after 13 to 15 days, scale 0 (no effect) to 100 (complete control)
  Corn plant response rating (crop injury, 0 = no effect, 100 = complete kill) at 500 g/ha: 20%
[3]; Zea mays, pre-emergence, Preemergence, 500 g ai/ha, scale 0 to 100, read-out: Corn plant response rating
  plant injury at 500 g/ha: 80%
[4]; Xanthium strumarium, post-emergence, Postemergence, 125 g ai/ha, scale 0 (no effect) to 100 (complete control), read-out: Cocklebur plant response rating
  pest or weed control at 125 g/ha: 50%
[4]; Xanthium strumarium, post-emergence, Postemergence, 500 g ai/ha, visual rating after 13 to 15 days, scale 0 (no effect) to 100 (complete control), read-out: Plant response rating, Cocklebur
  pest or weed control at 500 g/ha: 80%
[4]; Xanthium strumarium, pre-emergence, Preemergence, 500 g ai/ha, scale 0 to 100, read-out: Cocklebur plant response rating
  pest or weed control at 500 g/ha: 90%
[5]
  Plant response rating, Wheat: 20
[5]; Triticum aestivum, post-emergence, 336 h, 125 g ai/ha, read-out: Wheat plant response rating
  plant injury at 125 g/ha: 20%
[6]; Setaria faberi, post-emergence, 336 h, Postemergence, 125 g ai/ha, scale 0 (no effect) to 100 (complete control), read-out: Foxtail, Giant plant response rating
  pest or weed control at 125 g/ha: 30%
[6]; Setaria faberi, post-emergence, 336 h, Postemergence, 500 g ai/ha, visual rating after 13 to 15 days, scale 0 (no effect) to 100 (complete control), read-out: Plant response rating, Foxtail, Giant
  pest or weed control at 500 g/ha: 30%
[6]; Setaria faberi, pre-emergence, 336 h, Preemergence, 500 g ai/ha, scale 0 to 100, read-out: Foxtail, Giant plant response rating
  pest or weed control at 500 g/ha: 100%
[7]; Chenopodium album, post-emergence, 336 h, Postemergence, 125 g ai/ha, scale 0 (no effect) to 100 (complete control), read-out: Lambsquarters plant response rating
  pest or weed control at 125 g/ha: 80%
[7]; Chenopodium album, post-emergence, 336 h, Postemergence, 500 g ai/ha, visual rating after 13 to 15 days, scale 0 (no effect) to 100 (complete control), read-out: Plant response rating, Lambsquarters
  pest or weed control at 500 g/ha: 90%
[7]; Chenopodium album, pre-emergence, 336 h, Preemergence, 500 g ai/ha, scale 0 to 100, read-out: Lambsquarters plant response rating
  pest or weed control at 500 g/ha: 100%
[8]; Cyperus difformis, 336 h, read-out: Sedge, Umbrella plant response rating
  pest or weed control at 1000 g/ha: 90%
[9]; Digitaria sanguinalis, post-emergence, Postemergence, 125 g ai/ha, scale 0 (no effect) to 100 (complete control), read-out: Crabgrass, Large plant response rating
  pest or weed control at 125 g/ha: 20%
[9]; Digitaria sanguinalis, post-emergence, Postemergence, 500 g ai/ha, visual rating after 13 to 15 days, scale 0 (no effect) to 100 (complete control), read-out: Plant response rating, Crabgrass, Large
  pest or weed control at 500 g/ha: 30%
[9]; Digitaria sanguinalis, pre-emergence, Preemergence, 500 g ai/ha, scale 0 to 100, read-out: Crabgrass, Large plant response rating
  pest or weed control at 500 g/ha: 100%
[10]; Amaranthus retroflexus, post-emergence, 336 h, Postemergence, 125 g ai/ha, scale 0 (no effect) to 100 (complete control), read-out: Pigweed plant response rating
  pest or weed control at 125 g/ha: 60%
[10]; Amaranthus retroflexus, post-emergence, 336 h, Postemergence, 500 g ai/ha, visual rating after 13 to 15 days, scale 0 (no effect) to 100 (complete control), read-out: Plant response rating, Pigweed
  pest or weed control at 500 g/ha: 70%
[10]; Amaranthus retroflexus, pre-emergence, 336 h, Preemergence, 500 g ai/ha, scale 0 to 100, read-out: Pigweed plant response rating
  pest or weed control at 500 g/ha: 100%
[11]; Avena fatua, post-emergence, 336 h, 125 g ai/ha, read-out: Oat, Wild plant response rating
  pest or weed control at 125 g/ha: 20%
[11]
  Plant response rating, Oat, Wild: 30
[12]; Ipomoea, post-emergence, 336 h, Postemergence, 125 g ai/ha, scale 0 (no effect) to 100 (complete control), read-out: Morningglory plant response rating
  pest or weed control at 125 g/ha: 30%
[12]; Ipomoea, post-emergence, 336 h, Postemergence, visual rating after 13 to 15 days, scale 0 (no effect) to 100 (complete control), read-out: Plant response rating, Morningglory
  pest or weed control at 500 g/ha: 70%
[12]; Ipomoea, pre-emergence, 336 h, Preemergence, scale 0 to 100, read-out: Morningglory plant response rating
  pest or weed control at 500 g/ha: 90%
[13]; Oryza sativa, 336 h, read-out: Rice plant response rating
  plant injury at 1000 g/ha: 70%
[14]; Abutilon theophrasti, post-emergence, 336 h, Postemergence, 125 g ai/ha, scale 0 (no effect) to 100 (complete control), read-out: Velvetleaf plant response rating
  pest or weed control at 125 g/ha: 20%
[14]; Abutilon theophrasti, post-emergence, 336 h, Postemergence, 500 g ai/ha, visual rating after 13 to 15 days, scale 0 (no effect) to 100 (complete control), read-out: Plant response rating, Velvetleaf
  pest or weed control at 500 g/ha: 50%
[14]; Abutilon theophrasti, pre-emergence, 336 h, Preemergence, 500 g ai/ha, scale 0 to 100, read-out: Velvetleaf plant response rating
  pest or weed control at 500 g/ha: 100%
[15]; Echinochloa crus-galli, 336 h, read-out: Barnyardgrass plant response rating
  pest or weed control at 1000 g/ha: 90%

## C=Cn1nc(C(C)(C)C)cc1C(=O)Nc1cccc(C(=O)NCC)c1 [Compound 33]
[1]; [16]
  Plant response rating, Surinam Grass: 30
[1]; [17]
  Surinam Grass plant response rating: 80
[1]; [18]
  Plant response rating, Surinam Grass: 30
[2]; [19]
  Barnyardgrass plant response rating: 20
[2]; [16]
  Plant response rating, Barnyardgrass: 30
[2]; [17]
  Barnyardgrass plant response rating: 90
[3]; [17]
  Corn plant response rating: 30
[4]; [19]
  Cocklebur plant response rating: 80
[4]; [16]
  Plant response rating, Cocklebur: 100
[4]; [17]
  Cocklebur plant response rating: 30
[5]
  Plant response rating, Wheat: 30
[6]; [19]
  Foxtail, Giant plant response rating: 30
[6]; [16]
  Plant response rating, Foxtail, Giant: 30
[6]; [17]
  Foxtail, Giant plant response rating: 100
[6]; [18]
  Plant response rating, Foxtail, Giant: 80
[7]; [19]
  Lambsquarters plant response rating: 90
[7]; [16]
  Plant response rating, Lambsquarters: 90
[7]; [17]
  Lambsquarters plant response rating: 100
[7]; [18]
  Plant response rating, Lambsquarters: 100
[8]
  Sedge, Umbrella plant response rating: 90
[9]; [19]
  Crabgrass, Large plant response rating: 20
[9]; [16]
  Plant response rating, Crabgrass, Large: 30
[9]; [17]
  Crabgrass, Large plant response rating: 100
[10]; [16]
  Plant response rating, Pigweed: 90
[10]; [17]
  Pigweed plant response rating: 100
[10]; [18]
  Plant response rating, Pigweed: 100
[11]; 125 g ai/ha
  Oat, Wild plant response rating: 10
[11]
  Plant response rating, Oat, Wild: 10
[12]; [18]
  Plant response rating, Morningglory: 10
[13]
  Rice plant response rating: 60
[14]; [16]
  Plant response rating, Velvetleaf: 60
[14]; [17]
  Velvetleaf plant response rating: 80
[14]; [18]
  Plant response rating, Velvetleaf: 40
[15]
  Barnyardgrass plant response rating: 90
